In patent publication US20160271126A1, “PHARMACEUTICAL COMPOSITION” (Hoffmann-La Roche Inc., priority 2013, published 2016):

Experiments:
[1] = Solubility of bitopertin; type: physicochemical
Text: (§1) Being a BCS 2 molecule (according to the Biopharmaceutics Classification System, wherein the molecule has high permeability and low solubility), the API particles size distribution has been identified as a major critical quality attribute of the drug substance. […] Thus, micronized API was selected for development of a suitable formulation.

[2] = Biopharmaceutics Classification System class; type: physicochemical; set-up: key: 2: the molecule has high permeability and low solubility
Text: as §1

solubility in aqueous buffers and in water ([1]; aqueous buffers and water): practically insoluble
solubility in polar organic solvents ([1]; polar organic solvents): freely soluble
BCS class (Biopharmaceutics Classification System) [2]: 2
Structure (SMILES): C[C@H](Oc1ccc(S(C)(=O)=O)cc1C(=O)N1CCN(c2ncc(C(F)(F)F)cc2F)CC1)C(F)(F)F [Bitopertin]
